# Measurements from the NIST ThermoML archive (doi:10.1021/acs.jced.7b00236).
# Values joined by “and” are separate entries in the source; they are usually repeats but may differ in a detail not shown here. Equal values may be shown once. Numbers after ± are expanded uncertainties.
# Settings: Liquid, Ebulliometric method (Recirculating still)
vapor or sublimation pressure (303.15 K),vapor or sublimation pressure (308.15 K),vapor or sublimation pressure (313.15 K),vapor or sublimation pressure (318.15 K),vapor or sublimation pressure (323.15 K),SMILES
1.95 ± 0.14 kPa and 1.99 ± 0.14 kPa,2.61 ± 0.14 kPa and 2.65 ± 0.14 kPa,3.43 ± 0.14 kPa and 3.45 ± 0.14 kPa,4.46 ± 0.14 kPa and 4.51 ± 0.14 kPa,5.75 ± 0.14 kPa and 5.83 ± 0.14 kPa,CCOC(=O)OCC [diethyl carbonate]
8.33 ± 0.14 kPa,10.44 ± 0.14 kPa,12.97 ± 0.14 kPa,15.98 ± 0.15 kPa,19.54 ± 0.15 kPa,"CC(C)CC(C)(C)C [2,2,4-trimethylpentane]"
7.79 ± 0.14 kPa,9.85 ± 0.14 kPa,12.34 ± 0.14 kPa,15.33 ± 0.15 kPa,18.9 ± 0.15 kPa,CCCCCCC [heptane]

SMILES,vapor or sublimation pressure (303.15 K),vapor or sublimation pressure (308.15 K),vapor or sublimation pressure (313.15 K),vapor or sublimation pressure (318.15 K),vapor or sublimation pressure (323.15 K)
Cc1ccccc1 [toluene],4.87 ± 0.14 kPa,6.32 ± 0.14 kPa,7.78 ± 0.14 kPa,9.89 ± 0.14 kPa,12.27 ± 0.14 kPa
